A value given as a limit tells only on which side of the number the result lay.

Assay [1] deals with BTK C481S (Homo sapiens (Human), UniProt Q06187, C481S). As to the kind of experiment: Binding kinetics measurements (Surface Plasmon Resonance) on BTK C481S. The settings on record: for Kd: binding affinity by Surface Plasmon Resonance (SPR); for Tau (h) BTK C418S (Act): target residence time for BTK C481S, SPR. In a few lines: (§1)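 Kinetic constants came from double-referenced SPR sensorgrams of five ascending compound injections (3.16-316 nM, single cycle) over streptavidin-captured enzyme. Flow was 30 μl/min at 22° C with 1% DMSO. Duplicate ka, kd and KD were geometrically averaged.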
BTK C481S, sequence (Q06187 whole entry C481S): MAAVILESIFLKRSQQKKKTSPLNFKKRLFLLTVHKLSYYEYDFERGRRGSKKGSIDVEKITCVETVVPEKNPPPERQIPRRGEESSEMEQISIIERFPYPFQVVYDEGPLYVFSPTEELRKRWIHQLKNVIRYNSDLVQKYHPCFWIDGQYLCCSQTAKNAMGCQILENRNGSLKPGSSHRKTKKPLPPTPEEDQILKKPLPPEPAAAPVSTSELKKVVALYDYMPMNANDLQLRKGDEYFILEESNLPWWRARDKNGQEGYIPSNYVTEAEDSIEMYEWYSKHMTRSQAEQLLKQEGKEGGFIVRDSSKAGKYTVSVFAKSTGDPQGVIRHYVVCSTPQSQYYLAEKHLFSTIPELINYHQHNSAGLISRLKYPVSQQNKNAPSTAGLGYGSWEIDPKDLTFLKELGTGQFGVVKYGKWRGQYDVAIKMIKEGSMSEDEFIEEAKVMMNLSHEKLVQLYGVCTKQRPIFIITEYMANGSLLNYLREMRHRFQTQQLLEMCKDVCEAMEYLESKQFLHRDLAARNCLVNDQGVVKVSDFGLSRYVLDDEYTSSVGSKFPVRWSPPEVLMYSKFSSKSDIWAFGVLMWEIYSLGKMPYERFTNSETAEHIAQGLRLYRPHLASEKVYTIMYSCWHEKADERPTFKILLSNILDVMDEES

The target in assay [2] is wt-BTK (Homo sapiens (Human), UniProt Q06187). As to the kind of experiment: Binding kinetics measurements (Surface Plasmon Resonance) on wt-BTK. The settings on record: for Kd: binding affinity by Surface Plasmon Resonance (SPR); for Tau (h) wt-BTK (Act): target residence time, SPR. An outline of the steps: as §1
wt-BTK, sequence (Q06187 whole entry): as the sequence (Q06187 whole entry C481S) above, with S481C counted along it
Assay [3] deals with full-length BTK C481S enzyme (Homo sapiens (Human), UniProt Q06187, C481S). As to the kind of experiment: Biochemical kinase assay BTK C481S (IMAP). An outline of the steps: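 IC50 values come from IMAP fluorescence polarization after quenching with progressive binding solution. The reaction ran 2 h at room temperature in the dark with 1.2 nM full-length C481S enzyme, 7 μM ATP and 50 nM fluorescein-labelled MBP-derived peptide, following a 1 h dark pre-incubation of compound with enzyme.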
full-length BTK C481S enzyme, sequence (Q06187 whole entry C481S): as the sequence (Q06187 whole entry C481S) above

Assay [4] concerns wt-REC-1 mantle cell lymphoma cells. As to the kind of experiment: Cell proliferation assay wt-REC-1 (ATPlite, 72 hours). Type of assay: cell-based. To be noted: 72 h; read-out: IC50 wt-REC-1. In a few lines: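 Luminescent viability read over 72 h, start-of-incubation signal recorded separately to separate growth from cell death. Percentage growth referenced to compound-free 0.3% DMSO wells; IC50 from 4-parameter logistic fit.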

The target of assay [5] is BTK T474S (Homo sapiens (Human), UniProt Q06187, T474S). As to the kind of experiment: Binding kinetics measurements (Surface Plasmon Resonance) on BTK T474S. To be noted: for residence time: SPR binding kinetics, BTK T474S, read-out: Tau (h) BTK T474S (Act), target residence time (converted); for Kd: binding affinity by Surface Plasmon Resonance (SPR). An outline of the steps:
as §1

For assay [6], the system named is wt-TMD8 diffuse large B-cell lymphoma cells. As to the kind of experiment: Cell proliferation assay wt-TMD8 (ATPlite, 120 hours). Type of assay: cell-based. To be noted: B-cell; wt-TMD8 cells, 120 hours, ATPlite; read-out: IC50 wt-TMD8. An outline of the steps:
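Readout is percentage growth from ATPlite 1Step luminescence after 5 days (120 h) compound treatment of wt-TMD8 lymphoma cells (1600/well, RPMI-1640 + 10% FBS). Time-zero signal separates growth inhibition from cell kill; 0.3% DMSO wells without compound define maximal growth.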

Assay [7] deals with BTK T316A (Homo sapiens (Human), UniProt Q06187, T316A). As to the kind of experiment: Binding kinetics measurements (Surface Plasmon Resonance) on BTK T316A. The settings on record: for Kd: binding affinity by Surface Plasmon Resonance (SPR); for Tau (h) BTK T316A (Act): target residence time, SPR. In a few lines:
as §1

In assay [8] the target is BTK T474I (Homo sapiens (Human), UniProt Q06187, T474I). As to the kind of experiment: Binding kinetics measurements (Surface Plasmon Resonance) on BTK T474I. To be noted: for Kd: binding affinity by Surface Plasmon Resonance (SPR); for Tau (h) BTK T474I (Act): target residence time, SPR. An outline of the steps:
as §1

BTK T474S, sequence (Q06187 whole entry T474S): as the sequence (Q06187 whole entry C481S) above, with T474S, S481C counted along it
BTK T474I, sequence (Q06187 whole entry T474I): as the sequence (Q06187 whole entry C481S) above, with T474I, S481C counted along it
BTK T316A, sequence (Q06187 whole entry T316A): as the sequence (Q06187 whole entry C481S) above, with T316A, S481C counted along it

Consider `Nc1ncc2c3c1c(-c1ccc(C(=O)Nc4cc(C(F)(F)F)ccn4)cc1)nn3[C@@H]1CCC[C@H](C1)NC(=O)CCOC/C=C/2` [Example 25], for which the Kd is less than 5 nM in assay [1]; less than 5 nM in assay [2]; less than 3 nM in assay [5]; less than 5 nM in assay [7]; less than 2 nM in assay [8]. In assay [1], the “Tau (h) BTK C418S (Act)” value came to 12.17 h. The “Tau (h) wt-BTK (Act)” value in assay [2] was 9.45 h. Moreover, the IC50 is less than 5 nM in assay [3], less than 100 nM in assay [4] and less than 100 nM in assay [6]. In addition, the residence time in assay [5] is 2.64 h. Further, in assay [7], the “Tau (h) BTK T316A (Act)” value turned out to be 3.55 h. Moreover, the “Tau (h) BTK T474I (Act)” value in assay [8] worked out at 3.02 h.

For `C[C@@H]1CC(=O)N[C@@H]2CCC[C@H](C2)n2nc(-c3ccc(C(=O)Nc4cc(C(F)(F)F)ccn4)cc3)c3c(N)ncc(c32)/C=C/CCN1` [Example 45], the Kd was less than 5 nM in assay [1]; less than 5 nM in assay [2]; less than 3 nM in assay [5]; less than 5 nM in assay [7]; less than 2 nM in assay [8]. The “Tau (h) BTK C418S (Act)” value in assay [1] is reported as 3.17 h. The “Tau (h) wt-BTK (Act)” value in assay [2] was 4.42 h. For the same compound, the IC50 in assay [3] is less than 5 nM; in assay [4] it was less than 100 nM; in assay [6], less than 100 nM. Moreover, the residence time in assay [5] is 2.94 h. In addition, in assay [7], the “Tau (h) BTK T316A (Act)” value came to 6.06 h. For the same compound, the “Tau (h) BTK T474I (Act)” value in assay [8] is listed as 2.64 h.

For `N#Cc1ccnc(NC(=O)c2ccc(-c3nc4n5c(cnc(N)c35)/C=C/CCCCCC(=O)N[C@@H]3CCC[C@@H]4C3)cc2)c1` [Example 184], the dissociation constant (Kd) in assay [1] was less than 5 nM. The “Tau (h) BTK C418S (Act)” value in assay [1] turned out to be 2.43 h. Moreover, in assay [2], the “Tau (h) wt-BTK (Act)” value came out at 5.55 h. Moreover, the results for the IC50 in assay [3], in assay [4] and in assay [6] were less than 5 nM, less than 100 nM and less than 100 nM, respectively. Also, in assay [8], the “Tau (h) BTK T474I (Act)” value worked out at 0.85 h.

For `N#Cc1ccnc(NC(=O)c2ccc(-c3nc4n5c(cnc(N)c35)/C=C/CCOCCC(=O)N[C@@H]3CC[C@@H]4C3)cc2)c1` [Example 201], the “Tau (h) BTK C418S (Act)” value in assay [1] amounted to 1.91 h. For the same compound, the “Tau (h) wt-BTK (Act)” value in assay [2] was 10.14 h. In addition, the IC50 was less than 5 nM in assay [3], less than 100 nM in assay [4] and less than 100 nM in assay [6]. Also, in assay [8], the “Tau (h) BTK T474I (Act)” value worked out at 1.15 h.

Consider `N#Cc1ccnc(NC(=O)c2ccc(-c3nc4n5c(cnc(N)c35)/C=C/CCCCCC(=O)N[C@@H]3CC[C@@H]4C3)cc2)c1` [Example 204], for which the Kd in assay [1] is less than 5 nM. Further, the “Tau (h) wt-BTK (Act)” value in assay [2] is reported as 5.64 h. Further, the IC50 was less than 5 nM in assay [3], less than 100 nM in assay [4] and less than 100 nM in assay [6]. Besides, the “Tau (h) BTK T474I (Act)” value in assay [8] is reported as 0.90 h.

These data come from patent US20250074911A1, “MACROCYCLIC BTK INHIBITORS” (Crossfire Oncology Holding B.V., priority 2021, published 2025).
